Measured values: paper PMC9377102, “Toxicity and toxicokinetics of the ethanol extract of Zuojin formula” (BMC Complementary Medicine and Therapies, 2022)
Like-named read-outs stand apart in the source and are kept apart here.

What was measured:
[1] = Toxicokinetics test in the satellite groups (UPLC-MS/MS of rat plasma); format: in vivo
Method: SD rats (5 ~ 6 weeks, 3/group/sex) were randomly allocated to three treatment groups and given the same dosage as those in the repeated toxicity experiment for 28 days. […] Carbamazepine was chosen as the internal standard (IS). The blood samples were centrifuged to obtain plasma. Then, 300 μL of acetonitrile containing 40 ng of IS was added to 100 μL of plasma. After vortexing for 1 min, the mixture was centrifuged at 17,000 rpm for 15 min at 4 °C. The supernatant of each sample was injected into a UPLC–MS/MS system for determination. The injection volume was 1 μL. UPLC–MS analysis was performed on a Thermo Fisher Scientific Ultimate 3000 UPLC system (San Jose, USA) and an API 4000 QTRAP mass spectrometer (Foster City, USA) equipped with an ESI source. The mobile phase consisted of 2 solvents: (A) water containing 0.1% formic acid and (B) 100% acetonitrile. For MS, multiple reaction monitoring (MRM) in positive ion mode was used as the scanning mode for the main components and IS in the plasma samples. The dwell time (DT), collision energy (CE), quadrupole 1 pre-rod bias (Q1) and quadrupole 3 pre-rod bias (Q3) are listed in Table 3.

[2] = cited from earlier work
[3] = system: diarrhoea-predominant irritable bowel syndrome; settings: rats, 50 and 100 mg/kg for 14 days; cited from earlier work
[4] = system: thyroid hormone-induced diarrhoea; settings: rats, 60 mg/kg oral gavage for 7 days; cited from earlier work
[5] = system: CD4+ Th, CD4+CXCR5+ Tfh cells and Foxp3+ Tregs; settings: mice, intraperitoneal injection 1 mg/kg; cited from earlier work
[6] = system: spleen; settings: mice, intraperitoneal injection 10 mg/kg; cited from earlier work
[7] = system: CYP3A4, CYP1A2 and CYP2D6; settings: cited from earlier work
[8] = system: CYP3A4, CYP1A2 and CYP2D6; settings: cited from earlier work; remark: listed apart in the source
[9] = female SD rats, pure berberine 90 mg/kg orally, previous study, reference not given
[10] = male rats, pure berberine 90 mg/kg
[11] = female rats, Day 1, high dose TAZF 3.7 g/kg by gavage
[12] = female rats, Day 1, highest dose (berberine 72.08, epiberberine 7.42, coptisine 7.42, palmatine 18.26, jatrorrhizine 2.80, columbamine 5.93 mg/kg)
[13] = female rats, Day 1, low dose TAZF 0.4 g/kg by gavage
[14] = female rats, Day 1, lowest dose (berberine 8.01, epiberberine 0.82, coptisine 1.38, palmatine 2.03, jatrorrhizine 0.31, columbamine 0.66 mg/kg)
[15] = female rats, Day 1, middle dose (berberine 24.03, epiberberine 2.47, coptisine 2.47, palmatine 6.09, jatrorrhizine 0.93, columbamine 1.98 mg/kg)
[16] = female rats, Day 28, high dose TAZF 3.7 g/kg by gavage
[17] = female rats, Day 28, highest dose (berberine 72.08, epiberberine 7.42, coptisine 7.42, palmatine 18.26, jatrorrhizine 2.80, columbamine 5.93 mg/kg)
[18] = female rats, Day 28, low dose TAZF 0.4 g/kg by gavage
[19] = female rats, Day 28, lowest dose (berberine 8.01, epiberberine 0.82, coptisine 1.38, palmatine 2.03, jatrorrhizine 0.31, columbamine 0.66 mg/kg)
[20] = female rats, Day 28, middle dose (berberine 24.03, epiberberine 2.47, coptisine 2.47, palmatine 6.09, jatrorrhizine 0.93, columbamine 1.98 mg/kg)
[21] = male rats, Day 1, high dose TAZF 3.7 g/kg by gavage
[22] = male rats, Day 1, highest dose (berberine 72.08, epiberberine 7.42, coptisine 7.42, palmatine 18.26, jatrorrhizine 2.80, columbamine 5.93 mg/kg)
[23] = male rats, Day 1, low dose TAZF 0.4 g/kg by gavage
[24] = male rats, Day 1, lowest dose (berberine 8.01, epiberberine 0.82, coptisine 1.38, palmatine 2.03, jatrorrhizine 0.31, columbamine 0.66 mg/kg)
[25] = male rats, Day 1, middle dose (berberine 24.03, epiberberine 2.47, coptisine 2.47, palmatine 6.09, jatrorrhizine 0.93, columbamine 1.98 mg/kg)
[26] = male rats, Day 28, high dose TAZF 3.7 g/kg by gavage
[27] = male rats, Day 28, highest dose (berberine 72.08, epiberberine 7.42, coptisine 7.42, palmatine 18.26, jatrorrhizine 2.80, columbamine 5.93 mg/kg)
[28] = male rats, Day 28, low dose TAZF 0.4 g/kg by gavage
[29] = male rats, Day 28, lowest dose (berberine 8.01, epiberberine 0.82, coptisine 1.38, palmatine 2.03, jatrorrhizine 0.31, columbamine 0.66 mg/kg)
[30] = male rats, Day 28, middle dose (berberine 24.03, epiberberine 2.47, coptisine 2.47, palmatine 6.09, jatrorrhizine 0.93, columbamine 1.98 mg/kg)

COc1ccc2cc3[n+](cc2c1OC)CCc1cc2c(cc1-3)OCO2 [berberine]
AUC(0-t) ([1]; female, SD, rat, plasma, po, 0.4 g/kg, female rats, Day 1, low dose TAZF 0.4 g/kg by gavage, read-out: AUC0-t): 122 ± 17.1 ng·h/mL
Cmax ([1]; female, SD, rat, plasma, po, 0.4 g/kg, female rats, Day 1, low dose TAZF 0.4 g/kg by gavage, read-out: Cmax): 149 ± 73 ng/mL
AUC(0-t) ([1]; female, SD, rat, plasma, po, 0.4 g/kg, female rats, Day 28, low dose TAZF 0.4 g/kg by gavage, read-out: AUC0-t): 838 ± 949 ng·h/mL
Cmax ([1]; female, SD, rat, plasma, po, 0.4 g/kg, female rats, Day 28, low dose TAZF 0.4 g/kg by gavage, read-out: Cmax): 324 ± 432 ng/mL
AUC(0-t) ([1]; female, SD, rat, plasma, po, 3.7 g/kg, female rats, Day 1, high dose TAZF 3.7 g/kg by gavage, read-out: AUC0-t): 306 ± 94.7 ng·h/mL
Cmax ([1]; female, SD, rat, plasma, po, 3.7 g/kg, female rats, Day 1, high dose TAZF 3.7 g/kg by gavage, read-out: Cmax): 219 ± 118 ng/mL
AUC(0-t) ([1]; female, SD, rat, plasma, po, 3.7 g/kg, female rats, Day 28, high dose TAZF 3.7 g/kg by gavage, read-out: AUC0-t): 153 ± 53.7 ng·h/mL
Cmax ([1]; female, SD, rat, plasma, po, 3.7 g/kg, female rats, Day 28, high dose TAZF 3.7 g/kg by gavage, read-out: Cmax): 23.8 ± 6.25 ng/mL
AUC(0-t) ([1]; male, SD, rat, plasma, po, 0.4 g/kg, male rats, Day 1, low dose TAZF 0.4 g/kg by gavage, read-out: AUC0-t): 1220 ± 389 ng·h/mL
Cmax ([1]; male, SD, rat, plasma, po, 0.4 g/kg, male rats, Day 1, low dose TAZF 0.4 g/kg by gavage, read-out: Cmax): 222 ± 180 ng/mL
AUC(0-t) ([1]; male, SD, rat, plasma, po, 0.4 g/kg, male rats, Day 28, low dose TAZF 0.4 g/kg by gavage, read-out: AUC0-t): 699 ± 644 ng·h/mL
Cmax ([1]; male, SD, rat, plasma, po, 0.4 g/kg, male rats, Day 28, low dose TAZF 0.4 g/kg by gavage, read-out: Cmax): 460 ± 276 ng/mL
AUC(0-t) ([1]; male, SD, rat, plasma, po, 3.7 g/kg, male rats, Day 1, high dose TAZF 3.7 g/kg by gavage, read-out: AUC0-t): 1860 ± 425 ng·h/mL
Cmax ([1]; male, SD, rat, plasma, po, 3.7 g/kg, male rats, Day 1, high dose TAZF 3.7 g/kg by gavage, read-out: Cmax): 219 ± 24.4 ng/mL
AUC(0-t) ([1]; male, SD, rat, plasma, po, 3.7 g/kg, male rats, Day 28, high dose TAZF 3.7 g/kg by gavage, read-out: AUC0-t): 608 ± 203 ng·h/mL
Cmax ([1]; male, SD, rat, plasma, po, 3.7 g/kg, male rats, Day 28, high dose TAZF 3.7 g/kg by gavage, read-out: Cmax): 136 ± 77.9 ng/mL
Systemic exposure after 28 days of administration vs single administration ([1]; rats, oral TAZF): much lower
AUC0–36 [2, 9]: 88.8 ng·h/mL
Cmax [2, 9]: 29.2 ng/mL
AUC0–60 [2, 10]: 305.8 ng·h/mL
Cmax [2, 10]: 28.2 ng/mL
Effect on diarrhoea-predominant irritable bowel syndrome [3]: improve diarrhoea-predominant irritable bowel syndrome
Effect on thyroid hormone-induced diarrhoea [4]: effect was also observed
T cell subset levels [5]: reduced levels of CD^4+ Th and CD^4+CXCR^5+ Tfh cells and an increased level of Foxp^3+ Tregs
Immunosuppressive effect and spleen weight [6]: strong immunosuppressive effect and reduced spleen weight
Metabolism by CYP3A4, CYP1A2 and CYP2D6 [7]: metabolized
Inhibition of CYP3A4, CYP1A2 and CYP2D6 [8]: inhibited

c1c2c(cc3c1OCO3)-c1cc3ccc4c(c3c[n+]1CC2)OCO4 [coptisine]
Cmax ([1]; male, SD, rat, in vivo, po, 0.4 g/kg): 45.49 ± 57.63 ng/mL
Cmax ([1]; male, SD, rat, in vivo, po, 0.4 g/kg, Cmax): 32.4 ± 33 ng/mL
Cmax ([1]; male, SD, rat, in vivo, po, 3.7 g/kg): 20.05 ± 13.57 ng/mL
Cmax ([1]; male, SD, rat, in vivo, po, 3.7 g/kg, Cmax): 32.3 ± 9.08 ng/mL
Systemic exposure after 28 days of administration vs single administration ([1]; rat, in vivo, po): much lower

COc1cc2c(cc1OC)-c1cc3ccc4c(c3c[n+]1CC2)OCO4 [epiberberine]
28-day AUC relative to the first day ([1]; rat, in vivo): 1 to 2 times
Inhibition of CYP3A4, CYP1A2 and CYP2D6 [8]: inhibited

COc1cc2c(cc1OC)-c1cc3ccc(OC)c(OC)c3c[n+]1CC2 [palmatine]
AUC(0-t) [1, 11]: 38.00 ± 16.92 ng·h/mL
Cmax [1, 11]: 46.60 ± 27.16 ng/mL
Cmax mean [1, 12]: 46.60 ng/mL
T1/2 mean [1, 12]: 5.18 h
Tmax mean [1, 12]: 0.50 h
AUC(0-t) [1, 13]: 18.08 ± 4.07 ng·h/mL
Cmax [1, 13]: 27.93 ± 13.97 ng/mL
Cmax mean [1, 14]: 27.93 ng/mL
T1/2 mean [1, 14]: 5.96 h
Tmax mean [1, 14]: 0.42 h
AUC0-t mean [1, 15]: 90.31 ng·h/mL
Cmax mean [1, 15]: 77.60 ng/mL
T1/2 mean [1, 15]: 3.29 h
Tmax mean [1, 15]: 0.83 h
AUC(0-t) [1, 16]: 24.07 ± 12.21 ng·h/mL
Cmax [1, 16]: 5.67 ± 2.58 ng/mL
Cmax mean [1, 17]: 5.67 ng/mL
T1/2 mean [1, 17]: 3.98 h
Tmax mean [1, 17]: 0.83 h
AUC(0-t) [1, 18]: 116.47 ± 138.20 ng·h/mL
Cmax [1, 18]: 55.94 ± 72.88 ng/mL
Cmax mean [1, 19]: 55.94 ng/mL
T1/2 mean [1, 19]: 80.32 h
Tmax mean [1, 19]: 0.42 h
AUC0-t mean [1, 20]: 14.65 ng·h/mL
Cmax mean [1, 20]: 4.16 ng/mL
T1/2 mean [1, 20]: 9.33 h
Tmax mean [1, 20]: 1.33 h
AUC(0-t) [1, 21]: 342.51 ± 66.62 ng·h/mL
Cmax [1, 21]: 51.33 ± 17.52 ng/mL
Cmax mean [1, 22]: 51.33 ng/mL
T1/2 mean [1, 22]: 10.38 h
Tmax mean [1, 22]: 3.33 h
AUC(0-t) [1, 23]: 236.12 ± 103.55 ng·h/mL
Cmax [1, 23]: 52.47 ± 52.73 ng/mL
Cmax mean [1, 24]: 52.47 ng/mL
T1/2 mean [1, 24]: 12.88 h
Tmax mean [1, 24]: 3.33 h
AUC0-t mean [1, 25]: 318.68 ng·h/mL
Cmax mean [1, 25]: 71.53 ng/mL
T1/2 mean [1, 25]: 26.57 h
Tmax mean [1, 25]: 0.67 h
AUC(0-t) [1, 26]: 110.18 ± 34.30 ng·h/mL
Cmax [1, 26]: 32.93 ± 24.17 ng/mL
Cmax mean [1, 27]: 32.93 ng/mL
T1/2 mean [1, 27]: 11.01 h
Tmax mean [1, 27]: 4.08 h
AUC(0-t) [1, 28]: 36.98 ± 18.55 ng·h/mL
Cmax [1, 28]: 67.20 ± 74.82 ng/mL
Cmax mean [1, 29]: 67.20 ng/mL
T1/2 mean [1, 29]: 12.22 h
Tmax mean [1, 29]: 0.83 h
AUC0-t mean [1, 30]: 102.21 ng·h/mL
Cmax mean [1, 30]: 22.63 ng/mL
T1/2 mean [1, 30]: 2.90 h
Tmax mean [1, 30]: 12.00 h
Systemic exposure after 28 days of administration vs single administration ([1]; rats, oral TAZF): much lower
Metabolism by CYP3A4, CYP1A2 and CYP2D6 [7]: metabolized

O=c1c2ccccc2nc2n1CCc1c-2[nH]c2ccccc12 [rutaecarpine]
Level in plasma ([1]; both, SD, rat, in vivo, po): < 0.5 ng/mL
